Data on five compounds can be found in patent publication US20240391862A1, “(1,4,5-TRISUBSTITUTED-1H-PYRAZOL-3-YL)OXY-2-ALKOXY ALKYL ACIDS AND THEIR DERIVATIVES, THEIR SALTS AND THEIR USE AS HERBICIDAL AGENTS” (Bayer AKtiengesellschaft, priority 2021, published 2024).

In data set [1] the test system is ABUTH. Nature of the data set: Post-emergence herbicidal effect, greenhouse pot test. It is filed as in vivo, Abutilon theophrasti. The following applies: visual rating about 3 weeks after treatment. Summed up:
(§1)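 Greenhouse pot plants in sandy loam receive a one-leaf-stage spray at 20 to 320 g/ha. Activity is assessed visually around 3 weeks afterwards on a 0–100% scale, where 100% means the plants have died.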

For data set [2], the system named is VIOTR. The description is as above. To be noted: for pest or weed control at 320 g/ha / pest or weed control at 80 g/ha: Viola tricolor, 504 h, read-out: Post-emergence effect against VIOTR in %. The data set is classed as in vivo, Viola tricolor. In a few lines:
as §1

The subject of data set [3] is MATIN. Described as above. The data set is classed as in vivo, Tripleurospermum inodorum. Summed up: as §1
The subject of data set [4] is SETVI. Described as above. It is filed as in vivo, Setaria viridis. The following applies: for pest or weed control at 320 g/ha: Setaria viridis, 504 h, read-out: Post-emergence effect against SETVI in %. In a few lines:
as §1

In data set [5] the test system is DIGSA. The description is as above. The following applies: 320 g/ha, visual rating about 3 weeks after treatment; for pest or weed control at 320 g/ha: Digitaria sanguinalis, 504 h, read-out: Post-emergence effect against DIGSA. It is filed as in vivo, Digitaria sanguinalis. In a few lines:
as §1

The test system of data set [6] is VERPE. The description is as above. It is filed as in vivo, Veronica persica. The following applies: for pest or weed control at 80 g/ha / pest or weed control at 320 g/ha: Veronica persica, 504 h, read-out: Post-emergence effect against VERPE in %. Summed up: as §1
Data set [7] relates to POLCO. The description is as above. The data set is classed as in vivo, Fallopia convolvulus. Summed up:
as §1

Data set [8] concerns AMARE. Described as above. It is filed as in vivo, Amaranthus retroflexus. To be noted: visual rating about 3 weeks after treatment. In a few lines: as §1
The subject of data set [9] is KCHSC. Described as above. It is filed as in vivo. The following applies: 320 g/ha. In a few lines:
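Visual rating of activity against untreated plants (100% = plants died, 0% = no effect), done about 3 weeks after treatment. Compounds applied at 20–320 g/ha as aqueous spray (600 l/ha, 0.5% additive) from WP or EC formulations onto one-leaf-stage plants grown in sandy loam under greenhouse conditions.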

Data set [10] concerns TRZAS. Nature of the data set: Post-emergence herbicidal effect and crop plant compatibility, greenhouse pot test. It is filed as in vivo, Triticum aestivum. The following applies: for Post-emergence effect at 20 g/ha against TRZAS in % / percent crop injury (phytotoxicity) to wheat, post-emergence at 20 g/ha: one-leaf stage, rated visually after about 3 weeks vs untreated controls; for percent crop injury (phytotoxicity) to wheat, post-emergence at 20 g/ha: Triticum aestivum, 504 h, read-out: Post-emergence effect at 20 g/ha against TRZAS in %. In a few lines: as §1

Data set [11] concerns AVEFA. Nature of the data set: Post-emergence herbicidal effect, greenhouse pot test. It is filed as in vivo, Avena fatua. To be noted: 320 g/ha, visual rating about 3 weeks after treatment; for pest or weed control at 320 g/ha: Avena fatua, 504 h, read-out: Post-emergence effect against AVEFA. Summed up:
as §1

The test system of data set [12] is ECHCG. Described as above. It is filed as in vivo, Echinochloa crus-galli. To be noted: for Post-emergence effect against ECHCG: 20 g/ha, visual rating about 3 weeks after treatment. In a few lines: as §1
The subject of data set [13] is ALOMY. The description is as above. It is filed as in vivo, Alopecurus myosuroides. The following applies: 320 g/ha, visual rating about 3 weeks after treatment. Summed up:
as §1

Data set [14] concerns PHBPU. The data set is described as above. It is filed as in vivo, Ipomoea purpurea. In a few lines: as §1
Data set [15] deals with ZEAMX. Nature of the data set: Post-emergence herbicidal effect and crop plant compatibility, greenhouse pot test. It is filed as in vivo, Zea mays. To be noted: 20 g/ha, one-leaf stage, rated visually after about 3 weeks vs untreated controls; for plant injury at 20 g/ha: Zea mays, 504 h, read-out: Post-emergence effect at 20 g/ha against ZEAMX in %. Summed up:
as §1

Data set [16] concerns LOLRI. Nature of the data set: Post-emergence herbicidal effect, greenhouse pot test. It is filed as in vivo, Lolium rigidum. The following applies: 320 g/ha; for pest or weed control at 320 g/ha: Lolium rigidum, 504 h, read-out: Post-emergence effect against LOLRI in %. Summed up:
as §1

Setting [17] is: Abutilon theophrasti, 504 h, 320 g/ha, read-out: Post-emergence effect against ABUTH.
Setting [18] is: Tripleurospermum inodorum, 504 h, 320 g/ha, read-out: Post-emergence effect against MATIN in %.
[19] abbreviates: Amaranthus retroflexus, 504 h, 320 g/ha, read-out: Post-emergence effect against AMARE.
The mark [20] stands for this setting: Echinochloa crus-galli, 504 h, 320 g/ha, read-out: Post-emergence effect against ECHCG in %.
[21] abbreviates: Ipomoea purpurea, 504 h, 320 g/ha, read-out: Post-emergence effect against PHBPU in %.
The mark [22] stands for this setting: Fallopia convolvulus, 504 h, 320 g/ha, read-out: Post-emergence effect against POLCO in %.

Consider `CCOC(Oc1nn(-c2ccccc2F)c(-c2ccc(F)nc2)c1Cl)C(=O)OCC(C)C(=O)OC` (racemic) [Example I-54], for which the “Post-emergence effect against ABUTH” value in data set [1] (320 g/ha) is given as 80%. Besides, the “Post-emergence effect against VIOTR in %” value in data set [2] (80 g/ha) and in data set [2] (320 g/ha) was 80% in each case. The “Post-emergence effect against MATIN in %” value in data set [3] (20 g/ha) is 80%; in data set [3] (80 g/ha), 90%; in [3] (320 g/ha), 90%. Also, the “Post-emergence effect against SETVI in %” value in data set [4] (80 g/ha) stood at 80%; in data set [4] (320 g/ha), 90%. The “Post-emergence effect against DIGSA” value in [5] stood at 90%. For the same compound, the entries for the “Post-emergence effect against VERPE in %” value in [6] (20 g/ha), in [6] (80 g/ha) and in data set [6] (320 g/ha) were 80%, 80% and 90%, respectively. Besides, the “Post-emergence effect against POLCO in %” value in data set [7] (80 g/ha) and in data set [7] (320 g/ha) was 80% in each case. In addition, the “Post-emergence effect against AMARE” value in data set [8] (320 g/ha) was 80%. Moreover, in [9], the “Post-emergence effect against KCHSC in %” value is 80%. In addition, the “Post-emergence effect at 20 g/ha against TRZAS in %” value in data set [10] is 0%. In addition, in [11], the “Post-emergence effect against AVEFA” value is listed as 90%. For the same compound, the “Post-emergence effect against ECHCG” value in [12] is on record as 80%. The “Post-emergence effect against ECHCG in %” value in data set [12] (80 g/ha) and in data set [12] (320 g/ha) was 90% throughout. For the same compound, the “Post-emergence effect against ALOMY” value in data set [13] amounted to 100%. In addition, the “Post-emergence effect against PHBPU in %” value in [14] (80 g/ha) and in data set [14] (320 g/ha) was 90% in each case. Also, in [15], the “Post-emergence effect at 20 g/ha against ZEAMX in %” value is given as 0%.

`COC(Oc1nn(-c2ccccc2F)c(-c2ccc(F)nc2)c1Br)C(=O)O` (stereo not drawn) [Example I-25]: the pest or weed control at 320 g/ha in data set [1] (setting [17]) is 80%; in data set [2] (320 g/ha), 80%; in data set [3] (setting [18]) it was 80%; in data set [4] (320 g/ha), 90%; in [5] it was 90%; in data set [6] (320 g/ha) it was 90%. Further, the pest or weed control at 320 g/ha in data set [8] (setting [19]) came to 90%; in data set [16], 90%; in [12] (setting [20]), 80%; in [14] (setting [21]), 90%. The pest or weed control at 80 g/ha in data set [6] (80 g/ha) was determined as 80%; in data set [8] (Amaranthus retroflexus, 504 h, 80 g/ha, read-out: Post-emergence effect against AMARE) it was 80%. Further, in data set [10], the “Post-emergence effect at 20 g/ha against TRZAS in %” value was 10%. For the same compound, in data set [15], the “Post-emergence effect at 20 g/ha against ZEAMX in %” value came out at 20%.

Regarding `COC(Oc1nn(-c2cc(F)ccc2F)c(-c2cncc(F)c2)c1Br)C(=O)O` (stereo not drawn) [Example I-32], the pest or weed control at 80 g/ha in data set [1] (Abutilon theophrasti, 504 h, 80 g/ha, read-out: Post-emergence effect against ABUTH) came to 80%; in data set [2] (80 g/ha), 90%; in data set [3] (Tripleurospermum inodorum, 504 h, 80 g/ha, read-out: Post-emergence effect against MATIN in %) it was 90%; in [6] (80 g/ha), 90%; in data set [12] (Echinochloa crus-galli, 504 h, 80 g/ha, read-out: Post-emergence effect against ECHCG in %) it was 90%. The pest or weed control at 320 g/ha in data set [1] (setting [17]), in data set [2] (320 g/ha), in data set [3] (setting [18]), in [4] (320 g/ha), in data set [5] and in [6] (320 g/ha) was 90% each time. In addition, the pest or weed control at 320 g/ha in data set [7] (setting [22]) was determined as 80%; in data set [8] (setting [19]) it was 80%; in data set [16], 90%; in [11] it was 90%; in data set [12] (setting [20]), 90%; in data set [14] (setting [21]), 90%. Also, in [10], the percent crop injury (phytotoxicity) to wheat, post-emergence at 20 g/ha worked out at 10%. Moreover, in data set [15], the plant injury at 20 g/ha was 10%.

For `COC(=O)C(OC)Oc1nn(-c2ncccc2F)c(-c2ccc(F)nc2)c1I` (stereo not drawn) [Example I-39], the pest or weed control at 320 g/ha was 90% in [1] (setting [17]); 90% in data set [2] (320 g/ha); 90% in data set [4] (320 g/ha); 90% in data set [6] (320 g/ha); 90% in data set [7] (setting [22]); 80% in [8] (setting [19]). In addition, the pest or weed control at 320 g/ha in [16] came to 100%; in data set [11] it was 100%; in data set [12] (setting [20]), 90%; in [13] (Alopecurus myosuroides, 504 h, read-out: Post-emergence effect against ALOMY) it was 100%; in data set [14] (setting [21]), 90%. Moreover, the pest or weed control at 80 g/ha in data set [2] (80 g/ha) was 80%; in data set [7] (Fallopia convolvulus, 504 h, 80 g/ha, read-out: Post-emergence effect against POLCO in %), 90%; in [14] (Ipomoea purpurea, 504 h, 80 g/ha, read-out: Post-emergence effect against PHBPU in %), 90%. Moreover, the percent crop injury (phytotoxicity) to wheat, post-emergence at 20 g/ha in data set [10] turned out to be 0%. The plant injury at 20 g/ha in data set [15] is 20%.

For `COC(=O)C(OC)Oc1nn(-c2cccc(C)c2F)c(-c2ccc(F)nc2)c1Br` (stereo not drawn) [Example I-114], the “Post-emergence effect against ABUTH” value was determined as 80% in [1] (80 g/ha) and 90% in data set [1] (320 g/ha). The “Post-emergence effect against VIOTR in %” value in data set [2] (320 g/ha) is recorded as 90%. For the same compound, the “Post-emergence effect against MATIN in %” value is given as 80% in data set [3] (80 g/ha) and 90% in data set [3] (320 g/ha). Besides, the “Post-emergence effect against SETVI in %” value in [4] (320 g/ha) is on record as 90%. For the same compound, in data set [5], the “Post-emergence effect against DIGSA” value worked out at 80%. Besides, the “Post-emergence effect against VERPE in %” value worked out at 80% in [6] (20 g/ha), 80% in [6] (80 g/ha) and 90% in data set [6] (320 g/ha). Further, the figures for the “Post-emergence effect against AMARE” value in data set [8] (20 g/ha), in data set [8] (80 g/ha) and in data set [8] (320 g/ha) were 80%, 80% and 90%, respectively. Also, the “Post-emergence effect against LOLRI in %” value in [16] is on record as 80%. Also, the “Post-emergence effect at 20 g/ha against TRZAS in %” value in data set [10] came to 0%. Also, in data set [10] (80 g/ha, visual rating about 3 weeks after treatment, crop plant), the “Post-emergence effect against TRZAS” value was 20%. Also, in data set [11], the “Post-emergence effect against AVEFA” value worked out at 80%. In data set [12], the “Post-emergence effect against ECHCG” value amounted to 80%. Moreover, the “Post-emergence effect against ECHCG in %” value in [12] (80 g/ha) is on record as 90%; in data set [12] (320 g/ha), 100%. Besides, the “Post-emergence effect against PHBPU in %” value in data set [14] (80 g/ha) was found to be 80%; in data set [14] (320 g/ha) it was 90%.
